This is an account of results in patent US20210069295A1, “GALECTINS CONTROL MTOR IN RESPONSE TO ENDOMEMBRANE DAMAGE AND PROVIDE A MECHANISM AND TARGET FOR THE TREATMENT OF AUTOPHAGY-RELATED DISEASES” (STC. UNM, priority 2017, published 2021).

The test system of assay [1] is mTOR. The experiment in a line: mTOR activity by immunoblotting of S6K1 (T389) and ULK1 (S757) phosphorylation in HEK293T cells. The class given is cell-based. Particulars: HEK293T cells, full medium, 1 h. As to the method:
(§1) (A) Dose-response analysis of mTOR activity in HEK293T cells treated with glycyl-L-phenylalanine 2-naphththylamide (GPN) in full medium for 1 h. mTOR activity was monitored by inununoblotting analysis of S6K1 (T389) and ULK1 (S757) phosphorylation (phosphorylated S6K (T389) and ULK1 (S757) relative to total S6K and ULK1, respectively). (B) Analysis of mTOR activity (as in A) after GPN washout. HEK293T cells were treated with 100 μM GPN for 1 h followed by 1 h washout in full medium. Data, means±SEM (n=3), **p<0.01, ANOVA. (C) Analysis of mTOR activity (as in A) in HEK293T cells treated with increasing doses of silica in full medium for 1 h. (D) HEK293T cells were treated with lysosomal damaging agents (LLOMe, Leu-Leu-OMe) for 1 h in full medium and status of acidified organelles assessed by quantifying LysoTracker Red DND-99 puncta using automated high-content imaging and analysis (HC). None-treated cells were as control (Ctrl). White masks, algorithm defined cell boundaries (primary objects); yellow masks, computer-identified LysoTracker Red puncta (target objects). Data, means±SEM, n≥3 independent experiments (500 primary objects counted per well; ≥5 wells/sample per each experiment), **p<0.01, ANOVA. (E) Analysis of mTOR activity in primary human macrophages treated with GPN. Human peripheral blood monocyte derived macrophages were treated with 100 μM GPN in full medium or starved in EBSS for 1 h, and mTOR activity measured as in A. None-treated cells were as control (Ctrl). (F) Quantification by HC of overlaps between mTOR and LAMP2 (representative images shown in FIG. S1D) in HeLa cells treated with lysosomal damaging agents for 1 h in full medium. Data, means±SEM, n≥3 independent experiments (500 primary objects counted per well; ≥5 wells/sample per each experiment) **p<0.01, ANOVA. (G) Immunofluorescence confocal microscopy visualization of mTOR localization relative to LAMP2-positive lysosomes. […] (H) Analysis of TFEB nuclear translocation in HeLa cells treated with 100 μM GPN in full medium for 1 h, and the nuclear translocation of TFEB was measured by HC (Nuclei, Hoechst 33342, blue pseudocolor; TFEB red fluorescence, Alexa-568). […] White masks, computer algorithm-defined cell boundaries (primary objects); pink masks, computer-identified nuclear TFEB based on the average intensity of Alexa-568 fluorescence. Data, means±SEM, n≥3 independent experiments (500 primary objects counted per well; ≥5 wells/sample per each experiment), **p<0.01, ANOVA. (I) HeLa cells were treated as indicated in full medium for 1 h, and LC3 puncta were quantified by HC. […] Data, means±SEM, n≥3 independent experiments (500 primary objects counted per well; ≥5 wells/sample per each experiment), **p<0.01, ANOVA. […]
A general note: A western blot detects proteins with antibodies after separation by electrophoresis.

The test system of assay [2] is TFEB. The experiment in a line: TFEB nuclear translocation by high-content microscopy in HeLa cells. To be noted: 1 h full medium. The class given is cell-based. As to the method:
(A) Dose-response analysis of mTOR activity in HEK293T cells treated with glycyl-L-phenylalanine 2-naphththylamide (GPN) in full medium for 1 h. mTOR activity was monitored by inununoblotting analysis of S6K1 (T389) and ULK1 (S757) phosphorylation (phosphorylated S6K (T389) and ULK1 (S757) relative to total S6K and ULK1, respectively). (B) Analysis of mTOR activity (as in A) after GPN washout. HEK293T cells were treated with 100 μM GPN for 1 h followed by 1 h washout in full medium. Data, means±SEM (n=3), **p<0.01, ANOVA. (C) Analysis of mTOR activity (as in A) in HEK293T cells treated with increasing doses of silica in full medium for 1 h. (D) HEK293T cells were treated with lysosomal damaging agents (LLOMe, Leu-Leu-OMe) for 1 h in full medium and status of acidified organelles assessed by quantifying LysoTracker Red DND-99 puncta using automated high-content imaging and analysis (HC). […] Data, means±SEM, n≥3 independent experiments (500 primary objects counted per well; ≥5 wells/sample per each experiment), **p<0.01, ANOVA. […] Human peripheral blood monocyte derived macrophages were treated with 100 μM GPN in full medium or starved in EBSS for 1 h, and mTOR activity measured as in A. None-treated cells were as control (Ctrl). […] Data, means±SEM, n≥3 independent experiments (500 primary objects counted per well; ≥5 wells/sample per each experiment) **p<0.01, ANOVA. […]

Assay [3] concerns mTOR. In words: mTOR localization relative to LAMP2-positive lysosomes (HC and confocal microscopy). The class given is cell-based. Particulars: HeLa cells. As to the method: as §1
Assay [4] has as its system bone marrow-derived macrophages (BMMs). The experiment in a line: LysoTracker Red DND-99 staining in bone marrow-derived macrophages (BMMs). The class given is cell-based, murine. To be noted: GPN 400 μM or LLOMe, 1 h.

Regarding `COC(=O)[C@H](CC(C)C)NC(=O)[C@@H](N)CC(C)C` [LLOMe, Leu-Leu-OMe], the “mTOR activity (phosphorylation of its substrates S6K1 and ULK1)” value in assay [1] is on record as “caused inhibition of mTOR activity”. Moreover, the TFEB nuclear translocation entry in assay [2] was “translocated to the nucleus from the cytoplasm”. Also, the “mTOR localization after washout” value in assay [3] (2 mM LLOMe 1 h followed by 1 h washout) is “relocalization of mTOR to lysosomes”. The “mTOR localization (lysosomes vs cytosol, overlap with LAMP2)” value in assay [3] (1 h full medium) is “translocated from lysosomes to the cytosol”. Besides, in assay [4], the “LysoTracker Red DND-99 staining in BMMs (lysosomal damage)” value is given as “reduced LysoTracker Red DND-99 staining”.
